# In PubChem BioAssay AID328 (DTP/NCI, 2004):
# Values joined by “and” are separate entries in the source; they are usually repeats but may differ in a detail not shown here. Equal entries are not always repeated. Toxic doses and inconclusive results are not listed.
# Test system: BDF1 mice, P388 leukemia ip, median survival T/C
# Experiment: NCI In Vivo Anticancer Drug Screen. Data for tumor model P388 Leukemia (intraperitoneal) in B6D2F1 (BDF1) mice
# Settings: endpoint: median survival time, higher = longer survival
# Outline: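 Compound-treated tumour-bearing mice were compared with vehicle-treated controls. Survival was recorded, and the value is the treated-group measurement divided by the control-group measurement (T/C).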
# [1] = dose: 100.0 mg/kg/injection, schedule: Q04DX003 (ip), vehicle: saline with Tween-80
# [2] = dose: 200.0 mg/kg/injection, schedule: Q04DX003 (ip), vehicle: saline with Tween-80
# [3] = dose: 50.0 mg/kg/injection, schedule: Q01DX009 (ip), vehicle: saline with Tween-80
# [4] = dose: 100.0 mg/kg/injection, schedule: Q01DX009 (ip), vehicle: saline with Tween-80
# [5] = dose: 200.0 mg/kg/injection, schedule: Q01DX009 (ip), vehicle: saline with Tween-80
# [6] = dose: 400.0 mg/kg/injection, schedule: Q04DX003 (ip), vehicle: saline with Tween-80
# [7] = dose: 100.0 mg/kg/injection, schedule: Q01DX009 (ip), vehicle: Klucel (hydroxypropylcellulose) (HPC)
# [8] = dose: 200.0 mg/kg/injection, schedule: Q01DX009 (ip), vehicle: Klucel (hydroxypropylcellulose) (HPC)
compound,measurement,setting,value
Nc1ncnc2c1nnn2C1OC(CO)C(O)C1O (stereo not drawn),T/C,"dose: 10.0 mg/kg/injection, schedule: Q01DX009 (ip), vehicle: Klucel (hydroxypropylcellulose) (HPC)",150 % of control
same,T/C,"dose: 15.0 mg/kg/injection, schedule: Q01DX009 (ip), vehicle: Klucel (hydroxypropylcellulose) (HPC)",160 % of control
same,T/C,"dose: 18.0 mg/kg/injection, schedule: Q01DX009 (ip), vehicle: Klucel (hydroxypropylcellulose) (HPC)",161 % of control
same,T/C,"dose: 24.0 mg/kg/injection, schedule: Q01DX009 (ip), vehicle: Klucel (hydroxypropylcellulose) (HPC)",96 % of control
same,T/C,"dose: 27.0 mg/kg/injection, schedule: Q01DX009 (ip), vehicle: Klucel (hydroxypropylcellulose) (HPC)",170 % of control
same,T/C,"dose: 28.0 mg/kg/injection, schedule: Q01DX009 (ip), vehicle: Klucel (hydroxypropylcellulose) (HPC)",170 % of control
same,T/C,"dose: 35.0 mg/kg/injection, schedule: Q01DX009 (ip), vehicle: Klucel (hydroxypropylcellulose) (HPC)",99 % of control
same,T/C,"dose: 40.0 mg/kg/injection, schedule: Q01DX009 (ip), vehicle: Klucel (hydroxypropylcellulose) (HPC)",104 % of control
same,T/C,"dose: 42.0 mg/kg/injection, schedule: Q01DX009 (ip), vehicle: Klucel (hydroxypropylcellulose) (HPC)",170 % of control
same,T/C,"dose: 53.0 mg/kg/injection, schedule: Q01DX009 (ip), vehicle: Klucel (hydroxypropylcellulose) (HPC)",107 % of control
same,T/C,"dose: 60.0 mg/kg/injection, schedule: Q01DX009 (ip), vehicle: Klucel (hydroxypropylcellulose) (HPC)",91 % of control
same,T/C,"dose: 63.0 mg/kg/injection, schedule: Q01DX009 (ip), vehicle: Klucel (hydroxypropylcellulose) (HPC)",115 % of control
same,T/C,"dose: 79.0 mg/kg/injection, schedule: Q01DX009 (ip), vehicle: Klucel (hydroxypropylcellulose) (HPC)",102 % of control
COc1ccc([I+]c2ccc(OC)cc2)cc1,T/C,"dose: 1.56 mg/kg/injection, schedule: Q01DX009 (ip), vehicle: saline",100 % of control
same,T/C,"dose: 3.13 mg/kg/injection, schedule: Q01DX009 (ip), vehicle: saline",100 % of control
same,T/C,"dose: 6.25 mg/kg/injection, schedule: Q01DX009 (ip), vehicle: saline",109 % of control
same,T/C,"dose: 12.5 mg/kg/injection, schedule: Q04DX003 (ip), vehicle: saline sonified",100 % of control
same,T/C,"dose: 25.0 mg/kg/injection, schedule: Q04DX003 (ip), vehicle: saline sonified",100 % of control
same,T/C,"dose: 50.0 mg/kg/injection, schedule: Q04DX003 (ip), vehicle: saline sonified",100 % of control
O=C1CCC23/C=C/C(=O)NCCCCNCCCNC(=O)/C=C/c4ccc(c2c4)OC3C1 (stereo not drawn),T/C,"dose: 50.0 mg/kg/injection, schedule: Q04DX003 (ip), vehicle: saline with Tween-80",105 % of control
same,T/C,[1],105 % of control
same,T/C,[2],105 % of control
Cc1nn(CCO)c(-c2ccccc2)c1-n1on1-c1c(C)nn(CCO)c1-c1ccccc1,T/C,[3],101 % of control
CCCCCCCCC(CO)CO,T/C,[3],100 % of control
same,T/C,[4],92 % of control
same,T/C,[5],95 % of control
Cc1cc([N+](=O)[O-])c2ccccc2c1N(CC(=O)O)S(=O)(=O)c1ccccc1,T/C,[4],100 % of control
same,T/C,[1],100 % of control
same,T/C,[5],112 % of control
same,T/C,[2],100 % of control
same,T/C,"dose: 400.0 mg/kg/injection, schedule: Q01DX009 (ip), vehicle: saline with Tween-80",120 % of control
same,T/C,[6],121 % of control
CC(C)C(=O)[O][Sn]([CH3])([CH3])[CH3],T/C,"dose: 0.75 mg/kg/injection, schedule: Q01DX009 (ip), vehicle: saline",100 % of control
same,T/C,"dose: 1.5 mg/kg/injection, schedule: Q01DX009 (ip), vehicle: saline",91 % of control
CCc1ccc2[nH]nc(CCC(=O)O)c(=O)c2c1,T/C,[3],117 % of control
same,T/C,[4],108 % of control
same,T/C,[5],92 % of control
O=C(NNC1CCCCC1)c1ccccc1,T/C,"dose: 25.0 mg/kg/injection, schedule: Q01DX009 (ip), vehicle: saline with Tween-80",95 % of control
C=CC[N+](C)(CC=C)CC[N+](C)(CC=C)CC=C,T/C,"dose: 50.0 mg/kg/injection, schedule: Q01DX009 (ip), vehicle: water",95 % of control
same,T/C,"dose: 50.0 mg/kg/injection, schedule: Q04DX003 (ip), vehicle: water",109 % of control
same,T/C,"dose: 100.0 mg/kg/injection, schedule: Q01DX009 (ip), vehicle: water",104 % of control
same,T/C,"dose: 100.0 mg/kg/injection, schedule: Q04DX003 (ip), vehicle: water",104 % of control
same,T/C,"dose: 150.0 mg/kg/injection, schedule: Q01DX009 (ip), vehicle: water",95 % of control
N#CCc1nc2ccccc2[nH]1,T/C,"dose: 50.0 mg/kg/injection, schedule: Q01DX009 (ip), vehicle: Klucel (hydroxypropylcellulose) (HPC)",104 % of control
same,T/C,[7],109 % of control
same,T/C,[8],95 % of control
C[n+]1c(-c2cccc3ccccc23)c2cc([N+](=O)[O-])ccc2c2ccccc21,T/C,"dose: 1.0 mg/kg/injection, schedule: Q04DX003 (ip), vehicle: water",113 % of control
same,T/C,"dose: 2.0 mg/kg/injection, schedule: Q04DX003 (ip), vehicle: water",104 % of control
same,T/C,"dose: 4.0 mg/kg/injection, schedule: Q01DX009 (ip), vehicle: water",118 % of control
same,T/C,"dose: 4.0 mg/kg/injection, schedule: Q04DX003 (ip), vehicle: water",115 % of control
same,T/C,"dose: 8.0 mg/kg/injection, schedule: Q04DX003 (ip), vehicle: water",97 % of control and 108 % of control
same,T/C,"dose: 16.0 mg/kg/injection, schedule: Q04DX003 (ip), vehicle: water",109 % of control
same,T/C,"dose: 32.0 mg/kg/injection, schedule: Q01DX009 (ip), vehicle: water",109 % of control
same,T/C,"dose: 32.0 mg/kg/injection, schedule: Q04DX003 (ip), vehicle: water",106 % of control
CS(=O)(=O)c1ncc(Br)cn1,T/C,"dose: 50.0 mg/kg/injection, schedule: Q01DX005 (ip), vehicle: saline with Tween-80",103 % of control
same,T/C,"dose: 50.0 mg/kg/injection, schedule: Q01DX009 (ip), vehicle: saline",111 % of control
same,T/C,"dose: 100.0 mg/kg/injection, schedule: Q01DX005 (ip), vehicle: saline with Tween-80",109 % of control
same,T/C,"dose: 100.0 mg/kg/injection, schedule: Q01DX009 (ip), vehicle: saline",124 % of control
same,T/C,"dose: 200.0 mg/kg/injection, schedule: Q01DX005 (ip), vehicle: saline with Tween-80",117 % of control
same,T/C,"dose: 200.0 mg/kg/injection, schedule: Q01DX009 (ip), vehicle: saline",120 % of control
same,T/C,"dose: 400.0 mg/kg/injection, schedule: Q01DX005 (ip), vehicle: saline with Tween-80",120 % of control
O=c1[nH]cnc2ccc(Cl)cc12,T/C,"dose: 37.5 mg/kg/injection, schedule: Q01DX009 (ip), vehicle: saline with Tween-80",92 % of control
same,T/C,"dose: 37.5 mg/kg/injection, schedule: Q04DX003 (ip), vehicle: saline with Tween-80",92 % of control
same,T/C,"dose: 75.0 mg/kg/injection, schedule: Q01DX009 (ip), vehicle: saline with Tween-80",96 % of control
CCCCCCCCCCCCCCCC(=O)N(C/C=C/CN(CCCN(C)C)C(=O)CCCCCCCCCCCCCCC)CCCN(C)C,T/C,"dose: 1.56 mg/kg/injection, schedule: Q01DX009 (ip), vehicle: saline with Tween-80",95 % of control
same,T/C,"dose: 3.13 mg/kg/injection, schedule: Q01DX009 (ip), vehicle: saline with Tween-80",100 % of control
same,T/C,"dose: 6.25 mg/kg/injection, schedule: Q01DX009 (ip), vehicle: saline with Tween-80",113 % of control
same,T/C,"dose: 12.5 mg/kg/injection, schedule: Q01DX009 (ip), vehicle: saline with Tween-80",95 % of control and 100 % of control
CCCCN(CCCC)c1ccc(/C=C/c2ccnc3ccccc23)cc1,T/C,"dose: 100.0 mg/kg/injection, schedule: Q01DX009 (sc), vehicle: olive oil, sesame oil, peanut oil",88 % of control
same,T/C,"dose: 100.0 mg/kg/injection, schedule: Q04DX003 (sc), vehicle: olive oil, sesame oil, peanut oil",88 % of control and 95 % of control
same,T/C,"dose: 200.0 mg/kg/injection, schedule: Q01DX009 (sc), vehicle: olive oil, sesame oil, peanut oil",88 % of control
same,T/C,"dose: 200.0 mg/kg/injection, schedule: Q04DX003 (sc), vehicle: olive oil, sesame oil, peanut oil",92 % of control and 95 % of control
same,T/C,"dose: 400.0 mg/kg/injection, schedule: Q01DX009 (sc), vehicle: olive oil, sesame oil, peanut oil",92 % of control
same,T/C,"dose: 400.0 mg/kg/injection, schedule: Q04DX003 (sc), vehicle: olive oil, sesame oil, peanut oil",92 % of control and 95 % of control
COc1cc2cc3c4cc(OC)c(OC)cc4cc[n+]3c(CCC(=O)O)c2cc1OC (tested in a mixture with another compound),T/C,[7],92 % of control
same,T/C,[8],119 % of control
CCCNC(=O)Nc1cc(C(F)(F)F)ccc1Cl,T/C,[1],100 % of control
same,T/C,[2],100 % of control
same,T/C,[6],100 % of control
C(#Cc1ccccc1)COCC1CO1 (stereo not drawn),T/C,[4],116 % of control
same,T/C,"dose: 100.0 mg/kg/injection, schedule: Q04DX003 (ip), vehicle: saline",90 % of control
same,T/C,"dose: 200.0 mg/kg/injection, schedule: Q04DX003 (ip), vehicle: saline",90 % of control
same,T/C,"dose: 400.0 mg/kg/injection, schedule: Q04DX003 (ip), vehicle: saline",120 % of control
